From US20230331792A1, “NEW MULTI-FUNCTIONAL OLIGOPEPTIDES” (ENLITISA (SHANGHAI) PHARMACEUTICAL CO., LTD., priority 2019, published 2023)
Square brackets hold non-standard residues; d marks the D form. Ends that are not written are not given here. Dopa = N[C@@H](Cc1ccc(O)c(O)c1)C(=O)O; Hyp = O=C(O)[C@@H]1C[C@@H](O)CN1

Tests used:
db/db mice = test: Diabetic wound model, VEGF and TGF-β1 content in wound tissues; assay type: in vivo; settings: topical once daily; 1.65, 16.45, 164.5 μg/wound/day; vs model group
Method: 8 to 12 week old male db/db mice (C57BL/KsJ-db/db, with a body weight of 35-45 g/mouse) supplied by Changzhou Cvens Experimental Animal Co. Ltd. Prior to any experiments being conducted, mice were housed under standardized conditions at a constant temperature of 22±2° C., with alternating 12-hour periods of light and darkness, and were fed on a standard mouse diet with water, for about a week.
General anesthesia was induced using intraperitoneal 3% chloral hydrate (Sinopharm Chemical Reagent Co., Ltd.; 1 mL/10 g of body weight). The hair on the back was shaved by a baby hair shaver and depilated with cream. The skin area was wiped and sterilized with 75% alcohol twice.
An EMS skin biopsy punch with an 18 mm diameter was used to make a round wound on the back. The full thickness of skin was removed, and the depth of the wound reached the fascia. Wounds were left open without a suture.
The model group was given same amount of normal saline. There were 12 mice in each group apart from the control group, which had 8 mice. The skin pieces taken during wound creation were used as the samples at Day 7 for the control group.
Recombinant Human Epidermal Growth Factor (rhEGF) was purchased and prepared according to the instructions by the manufacturer. The lyophilized rhEGF powder (100000 IU/vial) was dissolved in 20 mL of normal saline to make a solution with a concentration of 5000 IU/mL. The working dose of rhEGF for this experiment was 1285 IU/wound.
Compound A and Compound B were dissolved in saline at concentrations indicated in Table 7 below (L=low dose, M=medium dose, H=high dose). 50 μL of each solution was applied to the wound surfaces every day.
Vascular endothelial growth factor (VEGF) and transforming growth factor-beta 1 (TGF-β1) play prominent roles in wound healing process. VEGF and TGF-β1 are often co-expressed in tissues in which angiogenesis occurs.

Sprague Dawley (SD) rats = test: Croton oil-induced anal swelling model in rats I (Evans blue content); assay type: in vivo; settings: gel 0.5 and 1 mg/g, 200 μL twice a day for three days
Method: A croton oil mixture was prepared by mixing one part distilled water, four parts of pyridine (Nanjing Chemical Reagent Co., Ltd.), five parts of ether (China Pharmaceutical Group Chemical Reagents Co., Ltd.) and ten parts of 6% croton oil (Shanghai Yuanye Biotechnology Co., Ltd.) ether solution.
6-8 weeks old Sprague Dawley (SD) rats with average body weights of 180-220 g were supplied by Changzhou Cvens Experimental Animal Co. Ltd. (Changzhou, Jiangsu Province, China), half male and half female. Prior to any experiments being conducted, rats were housed under standardized conditions (at a constant temperature of 22±2° C., with alternating 12-hour periods of light and darkness) and were fed on a standard mouse diet with water, for about a week.
56 rats were randomly divided into 7 groups (as shown in Table 11 below), with 8 rats in each group. Compound A, Compound B and MaYinglong hemorrhoids ointment were dissolved at concentrations indicated in Table 11 below (L=low dose, M=medium dose, H=high dose).
The rats were anesthetized by isoflurane (China Pharmaceutical Group Chemical Reagents Co., Ltd.) inhalation. 75% alcohol cotton ball was used to disinfect the skin around the anus. […]
All samples were transferred to a 55° C. water bath or a heat block. […] Absorbance was measured at 610 nm, using 500 μL of formamide as a blank. […]

Substance | content of TGF-β1 in wound tissues (FIG. 3) (db/db mice) | content of VEGF in wound tissues (FIG. 2) (db/db mice) | inflammatory swelling, EB content in rectal and anal tissues (FIG. 5) (Sprague Dawley (SD) rats)
{[(Ala-Lys-Pro-Ser-Tyr-Hyp-Hyp-Thr-DOPA-Lys)2-Lys]2-Lys}2-Lys (AKPSY[Hyp][Hyp]T[Dopa]KKKK; also: branched lysine dendrimer {[(peptide)2-Lys]2-Lys}2-Lys) [Compound B] | stimulated the production | stimulated the production | may reduce inflammatory swelling caused by croton oil application
{[(Dopa-Ala-Lys-Pro-Ser-Tyr-Hyp-Hyp-Thr-Tyr-Lys)2-Lys]2-Lys}2-Lys ([Dopa]AKPSY[Hyp][Hyp]TYKKKK; also: branched lysine dendrimer {[(peptide)2-Lys]2-Lys}2-Lys) [Compound A] | stimulated the production | stimulated the production | may reduce inflammatory swelling caused by croton oil application
